Results reported in ChEMBL document CHEMBL1142106, “Resin glycosides from the roots of Ipomoea tyrianthina and their biological activity” (2007).
The source made the active and inactive calls. The rule behind the calls is not given here.

Tests used:
Mus musculus [1] = test: Anxiolytic activity of ICR mouse assessed as increase in time spent in open arms at 1.0 mg/kg, ip by EPM test relative to control; format: functional, organism-based; parameters: dose 1 mg/kg
Mus musculus [2] = test: Anticonvulsant effect in ICR mouse assessed as mortality protection against pentylenetetrazole-induced seizures at 1.0 mg/kg, ip relative to control; format: functional, organism-based; parameters: dose 1 mg/kg
Ileum [3] = test: Relaxation of spontaneous contractions of isolated rat ileum at 250 ug/mL relative to control; format: functional
Ileum [4] = test: Relaxation of spontaneous contractions of isolated rat ileum relative to control; format: functional, tissue-based
Mus musculus [5] = test: Anxiolytic activity of ICR mouse at 10 mg/kg, ip by EPM test relative to control; format: functional, organism-based; parameters: dose 10 mg/kg
Mus musculus [6] = test: Anticonvulsant effect in ICR mouse assessed as mortality protection against pentylenetetrazole-induced seizures at 40 mg/kg, ip relative to control; format: functional; conditions: route intraperitoneal
Mus musculus [7] = test: Antidepressant activity in ICR mouse assessed as diminution of immobility time at 10 mg/kg, ip by forced swimming test relative to control; format: functional, organism-based; parameters: dose 10 mg/kg
Mus musculus [8] = test: Anticonvulsant effect in ICR mouse assessed as mortality protection against pentylenetetrazole-induced seizures at 10 mg/kg, ip relative to control; format: functional; conditions: route intraperitoneal

Row | SMILES | Activity (Mus musculus [1]) | Activity (Mus musculus [2]) | Emax at 250 µg/mL (Ileum [3]) [%] | Activity (Ileum [4]) | Activity (Mus musculus [5]) | Activity (Mus musculus [6]) [%] | Activity (Mus musculus [7]) | Activity (Mus musculus [8]) [%]
1 | CN1C(=O)CN=C(c2ccccc2)c2cc(Cl)ccc21 | Active | Active | – | – | – | – | – | –
2 | C/C=C(\C)C(=O)O[C@H]1[C@H](O)[C@@H](O)[C@H](O[C@@H]2[C@H]3OC(=O)CCCCCCCCCC(CCCCC)O[C@@H]4O[C@H](C)[C@@H](O)[C@H](O)[C@H]4O[C@@H]4O[C@H](CO)[C@@H](O)[C@H](O)[C@H]4O[C@H](O[C@H]2C)[C@@H]3OC(=O)C(C)CC)O[C@@H]1C (some centres undefined) [SCAMMONIN 1] | – | – | 55.1 | Active | inactive | 100 | – | –
3 | CCCCCC1CCCCCCCCCC(=O)O[C@@H]2[C@@H](O[C@@H]3O[C@H](C)[C@@H](OC(=O)C(C)CC)[C@H](O)[C@H]3O)[C@H](C)O[C@@H](O[C@H]3[C@H](O[C@H]4[C@H](O1)O[C@H](C)[C@@H](O)[C@@H]4O)O[C@H](CO)[C@@H](O)[C@@H]3O)[C@@H]2OC(=O)CCC (some centres undefined) [TYRIANTHIN 6] | – | – | 59.1 | Active | inactive | 88 | Active | 33.33
4 | CCCCCC1CCCCCCCCCC(=O)O[C@@H]2[C@@H](O[C@@H]3O[C@H](C)[C@@H](O)[C@H](O)[C@H]3O)[C@H](C)O[C@@H](O[C@H]3[C@H](O[C@H]4[C@H](O1)O[C@H](C)[C@@H](O)[C@@H]4O)O[C@H](CO)[C@@H](O)[C@@H]3O)[C@@H]2OC(=O)C(C)CC (some centres undefined) [SCAMMONIN 2] | – | – | – | – | inactive | 66 | – | –
